Test results as given in patent US20260152533A1, “COMBINATION INHIBITORS FOR TREATING FIBROSIS” (Memorial Sloan-Kettering Cancer Center, priority 2021, published 2026).

Tests used:
Format in all cases: cell-based, mouse
[1] = test system: NIH-3T3 cells; assay: Western blot of NIH-3T3 cells (collagen I, GCN2, ATF4, PC); details: for rescue of TGFβ-induced collagen I depletion: metabolite, 48 hours
Description: (§1) PSCs were isolated from C57BL/6 mice by differential centrifugation as previously described^49 and their mesenchymal origin was validated by analyzing the expression of various mesenchymal and epithelial markers. MFBs were isolated from FVB/N mice by differential centrifugation as previously described^50. DB7 mouse breast cancer cells were obtained from Alexander Borowsky (University of California Davis Comprehensive Cancer Center, Sacramento, CA, USA) through an MTA to Ohio State University (OSU). KPC (Kras^LSL-G12D; Trp53^LSL-R172H; Pdx1-Cre) mouse PDAC cells were a gift from Scott Lowe (Memorial Sloan Kettering Cancer Center. (MSKCC)). All cells were cultured at 37° C. in 5% carbon dioxide (CO2) and 20% oxygen (O2) and were maintained in Dulbecco's Modified Eagles medium (DMEM) (25 mM D-glucose, 2 mM L-glutamine) supplemented with 10% fetal bovine serum (FBS) (Gemini), 100 units/ml penicillin and 100 μg/ml streptomycin. Primary PSC and MFB cells were kept in culture for no more than ten passages. Experiments with iCAFs and myCAFs were performed as previously described^29. In brief, qPSCs were generated by culturing PSCs in a dome of GFR Matrigel (Corning) in DMEM; iCAFs were generated by culturing PSCs in a dome of GFR Matrigel in DMEM conditioned by KPC cells for 48 h; myCAFs were generated by monolayer culture of PSCs. Differentiation was validated by analyzing the expression of iCAF/myCAF markers^29. For experiments with different glutamine concentrations, cells were seeded in regular DMEM and the medium was changed 5-6 hours later or the following day to glucose and glutamine-free DMEM supplemented with 10% dialyzed FBS (Gemini) and 20 mM D-glucose, 2 mM L-glutamine (100%), 0.4 mM L-glutamine (20%) or 0.2 mM L-glutamine (10%). All media were prepared by the Media Preparation Facility at MSKCC. Cells were verified as mycoplasma-free by the MycoAlert Mycoplasma Detection Kit (Lonza).
Lysates were generated by incubating cells or ground tumors in RIPA buffer (Millipore); […] of cleared lysate were analyzed by SDS-polyacrylamide gel electrophoresis (SDS-PAGE) as previously described^11. […] The following secondary antibodies were used: anti-rabbit horseradish peroxidase (HRP) (1:5,000; GE, NA934V), anti-mouse HRP (1:5,000; GE, NA931). Quantification of band intensities of collagen I relative to […] or vinculin in tumor allograft experiments was performed with Image Lab software v6.0 (Bio-Rad).

[2] = test system: NIH-3T3 cells; assay: Growth experiments, NIH-3T3 cells; details: 10% Gln, TGFβ, 0.2, 1 or 5 mM metabolite, 3 days
Description: NIH-3T3 cells were obtained from ATCC (CRL-1658); 293 T cells were obtained from ATCC (CRL-3216). PSCs were isolated from C57BL/6 mice by differential centrifugation as previously described^49 and their mesenchymal origin was validated by analyzing the expression of various mesenchymal and epithelial markers. MFBs were isolated from FVB/N mice by differential centrifugation as previously described^50. DB7 mouse breast cancer cells were obtained from Alexander Borowsky (University of California Davis Comprehensive Cancer Center, Sacramento, CA, USA) through an MTA to Ohio State University (OSU). KPC (Kras^LSL-G12D; Trp53^LSL-R172H; Pdx1-Cre) mouse PDAC cells were a gift from Scott Lowe (Memorial Sloan Kettering Cancer Center. (MSKCC)). All cells were cultured at 37° C. in 5% carbon dioxide (CO2) and 20% oxygen (O2) and were maintained in Dulbecco's Modified Eagles medium (DMEM) (25 mM D-glucose, 2 mM L-glutamine) supplemented with 10% fetal bovine serum (FBS) (Gemini), 100 units/ml penicillin and 100 μg/ml streptomycin. Primary PSC and MFB cells were kept in culture for no more than ten passages. Experiments with iCAFs and myCAFs were performed as previously described^29. In brief, qPSCs were generated by culturing PSCs in a dome of GFR Matrigel (Corning) in DMEM; iCAFs were generated by culturing PSCs in a dome of GFR Matrigel in DMEM conditioned by KPC cells for 48 h; myCAFs were generated by monolayer culture of PSCs. Differentiation was validated by analyzing the expression of iCAF/myCAF markers^29. For experiments with different glutamine concentrations, cells were seeded in regular DMEM and the medium was changed 5-6 hours later or the following day to glucose and glutamine-free DMEM supplemented with 10% dialyzed FBS (Gemini) and 20 mM D-glucose, 2 mM L-glutamine (100%), 0.4 mM L-glutamine (20%) or 0.2 mM L-glutamine (10%). All media were prepared by the Media Preparation Facility at MSKCC. Cells were verified as mycoplasma-free by the MycoAlert Mycoplasma Detection Kit (Lonza).
A total of 0.2×10^5 cells/well were plated in 24-well culture plates and media was changed and treatments started 5-6 hours later. Cell numbers at the start of treatment (day 0 “d 0”) and 1, 2 and 3 days later were counted using the Multisizer 4e (Beckman) and normalized to the cell number at d 0. In co-culture assays, a fraction of the cell population was analyzed by flow cytometry for GFP expression, and the rest counted with the Multisizer 4e. The number of KPC-GFP cells was determined by multiplying the fraction of GFP+ cells with the total number of cells.

[3] = test system: pancreatic stellate cells (PSCs); assay: Western blot of PSCs; details: TGFβ-treated PSCs, low glutamine, MSO (FIGS. 9A-9B)
Description: as §1, with “For experiments with different glutamine concentrations, cells were seeded in regular DMEM and the medium was changed 5-6 hours later or the following day to glucose and glutamine-free DMEM supplemented with 10% dialyzed FBS (Gemini) and 20 mM D-glucose, 2 mM L-glutamine (100%), 0.4 mM L-glutamine (20%) or 0.2 mM L-glutamine (10%). All media were prepared by the Media Preparation Facility at MSKCC. Cells were verified as mycoplasma-free by the MycoAlert Mycoplasma Detection Kit (Lonza).” left out
Lysates were generated by incubating cells or ground tumors in RIPA buffer (Millipore); […] of cleared lysate were analyzed by SDS-polyacrylamide gel electrophoresis (SDS-PAGE) as previously described^11. […] Quantification of band intensities of collagen I relative to […] or vinculin in tumor allograft experiments was performed with Image Lab software v6.0 (Bio-Rad).

[4] = test system: NIH-3T3 cells; assay: tRNA charging assay, NIH-3T3 cells; details: 10% Gln, TGFβ 2 ng/mL, dm-αKG 5 mM with or without MSO 2 mM, 48 hours (FIG. 2A)
Method: Charging status of the indicated tRNA isodecoders was measured as previously described^20. In brief, Trizol-chloroform extracts were precipitated with 2.7× volumes of cold ethanol in the presence of 30 μg GlycoBlue (ThermoFisher) overnight. Samples were resuspended in 0.3 M acetate buffer (pH 4.5) with 10 mM ethylenediamine tetraacetic acid (EDTA) and precipitated overnight. Samples were resuspended in 10 mM acetate buffer with 1 mM EDTA. 2 μg of each RNA sample was treated with 10 mM of either sodium periodate (Sigma) (‘oxidized sample’) or sodium chloride (‘non-oxidized sample’) and incubated for 20 minutes at room temperature in the dark. Reactions were quenched with glucose for 15 minutes. Yeast Phe-tRNA (Sigma) was spiked into each sample, followed by ethanol precipitation. Samples were resuspended in 50 mM Tris buffer (pH 9) and incubated for 50 minutes at 37° C., quenched with acetate buffer and precipitated. […] Reverse transcription was performed with SuperScript IV reverse transcriptase (Thermo Scientific) according to the manufacturer's instructions, with a primer complementary to the DNA adaptor. cDNA samples were subjected to qPCR with tRNA isodecoder-specific primer pairs listed in Supplementary Table 1. Ct values obtained with primers specific for yeast Phe-tRNA were subtracted from Ct values obtained with isodecoder-specific primers. The charged fraction was calculated based on the relative difference between the delta-Ct value of a non-oxidized (representing total) and oxidized (representing charged) sample for each primer pair.

[5] = test system: NIH-3T3 cells; assay: Translation assay (OPP), NIH-3T3 cells; details: cells expressing human PC cDNA, 10% Gln, TGFβ, MSO 48 hours (FIG. 3K)
Method: Cells were treated as indicated and incubated with 20 μM O-propargyl-puromycin (OPP, Thermo Scientific) for the last 1 hour of the experiment. Cells were harvested by trypsinization and fixed with methanol at −20° C., followed by permeabilization with 0.5% Triton X-100 in phosphate-buffered saline (PBS).

[6] = test system: NIH-3T3 cells; assay: Collagen abundance in ECM derived from confluent NIH-3T3 cells; details: low glutamine and low glucose medium (FIGS. 12E and 12F)
Method: Culture plates were coated with 0.1% gelatin (Sigma) and treated with 1% glutaraldehyde (Sigma) and 1 M ethanolamine (Sigma). Confluent NIH-3T3 cells, MFBs or PSCs were grown for 6 days on coated plates in the presence of […] sodium ascorbate (Sigma) and treated as indicated, and the medium was replaced every other day. Plates were decellularized with 20 mM ammonium hydroxide/0.5% Triton-X 100 for 5 min on a rotating platform. Three times the volume of PBS was added, and ECM was equilibrated overnight at 4° C., followed by four additional PBS washes. For western blot, preheated sample buffer supplemented with 1 mM dithiothreitol (DTT) was added, ECM was scraped off and boiled, and proteins were separated by SDS-PAGE followed by immunoblotting. To measure collagen abundance, fibroblast-derived ECM was stained with the Picro Sirius Red Stain Kit (Abcam) according to the manufacturer's instructions. The stain was extracted with 0.1 M sodium hydroxide (NaOH) and optical density was measured at 550 nm using a microplate reader. Differences in cell number were controlled for by growing cells on separate plates under the same experimental conditions.

[7] = concentrations relevant in vivo (10 mM lactate, 0.1 mM pyruvate), low glutamine and low glucose (FIG. 6E)

NC(=O)C[C@H](N)C(=O)O [Asparagine, asparagine]
rescue of TGFβ-induced collagen I depletion ([1]; 10% Gln): did not rescue
rescue of TGFβ-induced growth defect [2]: did not rescue

O=C(O)[C@@H]1CCCN1 [proline]
rescue of TGFβ-induced collagen I depletion ([1]; 10% Gln): did not rescue
rescue of TGFβ-induced growth defect [2]: did not rescue

CS(=N)(=O)CC[C@H](N)C(=O)O (stereo partly drawn) [MSO, methionine sulfoximine]
restoration of collagen levels by dm-Glu and dm-αKG [3]: prevented
charging of glutamine-tRNA [4]: blocked
restoration of collagen I levels by dm-αKG ([1]; PC-deleted cells, 10% Gln, dm-αKG plus MSO, 48 hours (FIG. 4I)): unable to restore
restoration of collagen levels by dm-Glu and dm-αKG ([1]; TGFβ-treated NIH-3T3 cells, low glutamine, MSO (FIGS. 2C-2E)): prevented
collagen I synthesis ([1]; low Gln (10%), no TGFβ, MSO 48 hours (FIG. 2J)): unable to maintain
increase of protein translation by PC overexpression [5]: blocked

CC(=O)C(=O)[O-].[Na+] [Pyruvate, sodium pyruvate]
collagen 1 levels [1, 7]: only lactate supplementation increased
potency to increase collagen 1 levels, relative ([1]; low glutamine and low glucose (FIG. 6E)): more potent than lactate

COC(=O)[C@@H]1CCCN1 [m-Pro, L-proline-methylester, reference compound]
rescue of TGFβ-induced collagen I depletion ([1]; 10% Gln): not
rescue of TGFβ-induced growth defect [2]: not

CC(O)C(=O)[O-].[Na+] (stereo not drawn) [lactate, sodium lactate]
collagen levels in the ECM produced by confluent fibroblasts [6]: increased
ability of extracellular lactate to rescue collagen I ([1]; Ctrl or PC sgRNA cells, low glutamine and low glucose (FIG. 6H)): PC-dependent
collagen 1 levels [1, 7]: increased
collagen 1 levels ([1]; low glutamine (10%) and low glucose (1 mM), 48 hours (FIG. 6E)): increased
